Earlier results in patent US20110123575A1, “MODIFIED RELEASE NIACIN FORMULATIONS” (DR. REDDY'S LABORATORIES LTD., priority 2008, published 2011).

Details: white, crystalline powder

solubility in water: very soluble in water
SMILES: O=C(O)c1cccnc1 [Niacin, 3-pyridinecarboxylic acid]
